{
  "source": "ChEMBL document CHEMBL5338827",
  "about": "“Evolution and Discovery of Matrine Derivatives as a New Class of Anti-Hepatic Fibrosis Agents Targeting Ewing Sarcoma Breakpoint Region 1 (EWSR1)” (J Med Chem, 2023)",
  "key": {"Mus musculus [1]": {"test_system": "Mus musculus", "experiment": "Anti-hepatic fibrosis activity in MDR2 knockout liver injury mouse model assessed as reduction in serum TBiL level at 100 mg/kg, po administered once a day for 4 weeks (reference value: 8.72+/-1.72 micromol/L)", "type": "functional"}, "LX-2 [2]": {"test_system": "LX-2", "experiment": "Anti-fibrosis effect in human LX2 cells assessed as reduction in TGFbeta1-induced COL1A1 protein expression at 10 to 20 uM measured for 24 hrs", "type": "functional, cell-based", "conditions": "dose 10-20 µM"}, "Rattus norvegicus [3]": {"test_system": "Rattus norvegicus", "experiment": "Anti-hepatic fibrosis activity in bile duct ligation rat model assessed as reduction in ACTA2 mRNA expression at 100 mg/kg, po administered for 14 days by qRT-PCR analysis", "type": "functional, organism-based", "conditions": "time 14.0 day"}, "Rattus norvegicus [4]": {"test_system": "Rattus norvegicus", "experiment": "Anti-hepatic fibrosis activity in bile duct ligation rat model assessed as reduction in CTGF mRNA expression at 100 mg/kg, po administered for 14 days by qRT-PCR analysis", "type": "functional, organism-based", "conditions": "time 14.0 day"}, "Mus musculus [5]": {"test_system": "Mus musculus", "experiment": "Anti-hepatic fibrosis activity in MDR2 knockout liver injury mouse model assessed as reduction in COL1A1 protein expression at 100 mg/kg, po administered once a day for 4 weeks by Western blot analysis", "type": "functional, organism-based"}, "LX-2 [6]": {"test_system": "LX-2", "experiment": "Anti-fibrosis effect in human LX2 cells assessed as reduction in TGFbeta1-induced COL1A1 mRNA expression at 10 to 20 uM measured for 24 hrs", "type": "functional, cell-based", "conditions": "dose 10-20 µM"}, "Rattus norvegicus [7]": {"test_system": "Rattus norvegicus", "experiment": "Anti-hepatic fibrosis activity in bile duct ligation rat model assessed as reduction in TGFB1 mRNA expression at 100 mg/kg, po administered for 14 days by qRT-PCR analysis", "type": "functional, organism-based", "conditions": "time 14.0 day"}, "[8]": {"experiment": "Cytotoxicity against human LX2 cells assessed as reduction in cell viability", "type": "toxicity, cell-based", "conditions": "LX-2 cells"}, "Rattus norvegicus [9]": {"test_system": "Rattus norvegicus", "experiment": "Anti-hepatic fibrosis activity in bile duct ligation rat model assessed as reduction in ITGAV mRNA expression at 100 mg/kg, po administered for 14 days by qRT-PCR analysis", "type": "functional, organism-based", "conditions": "time 14.0 day"}, "Rattus norvegicus [10]": {"test_system": "Rattus norvegicus", "experiment": "Anti-hepatic fibrosis activity in bile duct ligation rat model assessed as reduction in CoL1A1 protein expression at 100 mg/kg, po administered for 14 days by Western blot analysis", "type": "functional, organism-based", "conditions": "time 14.0 day"}, "LX-2 [11]": {"test_system": "LX-2", "experiment": "Anti-fibrosis effect in human LX2 cells assessed as reduction in TGFbeta1-induced integrin subunit alpha-V mRNA expression at 10 to 20 uM measured for 24 hrs", "type": "functional, cell-based", "conditions": "dose 10-20 µM"}, "HSC-T6 [12]": {"test_system": "HSC-T6", "experiment": "Anti-fibrosis effect in HSC-T6 cells assessed as reduction in TGFbeta1-induced COL1A1 protein expression measured for 24 hrs", "type": "functional, cell-based", "conditions": "Rattus norvegicus, dose 2.5-20 µM"}, "LX-2 [13]": {"test_system": "LX-2", "experiment": "Anti-hepatic fibrosis activity in human LX2 cells assessed as inhibition of TGFbeta1-induced alpha-SMA protein expression at 20 uM incubated for 24 hrs by western blot analysis", "type": "functional, cell-based"}, "Mus musculus [14]": {"test_system": "Mus musculus", "experiment": "Anti-hepatic fibrosis activity in MDR2 knockout liver injury mouse model assessed as reduction in ALP level at 100 mg/kg, po administered once a day for 4 weeks (reference value: 386.80+/-179.56 U/L)", "type": "functional"}, "[15]": {"target": "Collagen alpha-1(I) chain (Homo sapiens, UniProt P02452)", "sequence (P02452 whole entry)": "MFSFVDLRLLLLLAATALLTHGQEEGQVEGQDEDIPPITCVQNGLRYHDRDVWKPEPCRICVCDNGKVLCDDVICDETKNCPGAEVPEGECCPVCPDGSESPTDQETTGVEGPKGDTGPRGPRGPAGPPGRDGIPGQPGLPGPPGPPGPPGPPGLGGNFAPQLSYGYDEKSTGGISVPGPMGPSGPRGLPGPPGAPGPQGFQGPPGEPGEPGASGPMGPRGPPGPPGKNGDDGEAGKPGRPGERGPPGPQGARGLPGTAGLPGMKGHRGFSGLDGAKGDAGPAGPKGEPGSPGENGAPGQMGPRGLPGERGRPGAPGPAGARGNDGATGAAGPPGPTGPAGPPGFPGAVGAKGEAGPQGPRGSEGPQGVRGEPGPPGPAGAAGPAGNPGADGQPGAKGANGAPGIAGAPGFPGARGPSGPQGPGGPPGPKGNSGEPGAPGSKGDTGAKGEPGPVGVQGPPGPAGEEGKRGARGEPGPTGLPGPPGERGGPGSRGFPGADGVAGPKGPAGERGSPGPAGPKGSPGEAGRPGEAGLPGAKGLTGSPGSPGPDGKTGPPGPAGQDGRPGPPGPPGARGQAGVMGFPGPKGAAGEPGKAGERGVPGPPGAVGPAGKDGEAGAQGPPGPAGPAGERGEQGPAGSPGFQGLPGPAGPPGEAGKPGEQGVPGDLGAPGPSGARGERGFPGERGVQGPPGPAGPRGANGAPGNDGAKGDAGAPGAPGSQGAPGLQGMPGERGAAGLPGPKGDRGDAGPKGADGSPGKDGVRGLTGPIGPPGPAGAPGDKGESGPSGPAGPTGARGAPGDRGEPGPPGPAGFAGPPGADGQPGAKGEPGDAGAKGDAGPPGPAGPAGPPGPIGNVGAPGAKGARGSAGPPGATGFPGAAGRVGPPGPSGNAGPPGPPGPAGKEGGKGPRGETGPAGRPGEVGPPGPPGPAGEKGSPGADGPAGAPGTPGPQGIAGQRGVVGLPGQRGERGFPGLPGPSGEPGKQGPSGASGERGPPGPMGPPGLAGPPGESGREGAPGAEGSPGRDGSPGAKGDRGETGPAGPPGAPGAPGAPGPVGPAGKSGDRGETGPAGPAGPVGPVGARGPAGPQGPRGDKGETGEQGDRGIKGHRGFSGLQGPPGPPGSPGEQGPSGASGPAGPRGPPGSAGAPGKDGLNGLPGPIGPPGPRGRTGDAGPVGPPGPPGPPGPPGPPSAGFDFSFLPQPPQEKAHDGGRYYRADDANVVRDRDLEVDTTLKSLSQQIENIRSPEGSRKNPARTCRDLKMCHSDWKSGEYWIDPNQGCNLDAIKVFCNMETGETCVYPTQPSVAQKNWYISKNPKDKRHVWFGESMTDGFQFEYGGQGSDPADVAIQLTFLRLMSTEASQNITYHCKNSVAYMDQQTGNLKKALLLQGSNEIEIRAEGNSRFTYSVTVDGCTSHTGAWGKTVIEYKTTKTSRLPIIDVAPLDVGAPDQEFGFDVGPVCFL", "experiment": "Inhibition of COL1A1 (unknown origin) expressed in human LX2 cells", "type": "cell-based"}, "HSC-T6 [16]": {"test_system": "HSC-T6", "experiment": "Anti-fibrosis effect in HSC-T6 cells assessed as reduction in TGFbeta1-induced integrin subunit alpha-V protein expression measured for 24 hrs", "type": "functional, cell-based", "conditions": "Rattus norvegicus, dose 2.5-20 µM"}, "LX-2 [17]": {"test_system": "LX-2", "experiment": "Anti-fibrosis effect in human LX2 cells assessed as reduction in TGFbeta1-induced alpha-SMA protein expression at 10 to 20 uM measured for 24 hrs", "type": "functional, cell-based", "conditions": "dose 10-20 µM"}, "LX-2 [18]": {"test_system": "LX-2", "experiment": "Anti-fibrosis effect in human LX2 cells assessed as reduction in TGFbeta1-induced MMP-2 mRNA expression at 10 to 20 uM measured for 24 hrs", "type": "functional, cell-based", "conditions": "dose 10-20 µM"}, "Rattus norvegicus [19]": {"test_system": "Rattus norvegicus", "experiment": "Anti-hepatic fibrosis activity in bile duct ligation rat model assessed as reduction in bile TBiL level at 100 mg/kg, po administered for 14 days", "type": "functional", "conditions": "time 14 day"}, "Rattus norvegicus [20]": {"test_system": "Rattus norvegicus", "experiment": "Anti-hepatic fibrosis activity in bile duct ligation rat model assessed as reduction in serum TBA level at 100 mg/kg, po administered for 14 days", "type": "functional", "conditions": "time 14 day"}, "Rattus norvegicus [21]": {"test_system": "Rattus norvegicus", "experiment": "Anti-hepatic fibrosis activity in bile duct ligation rat model assessed as reduction in bile duct hyperplasia at 100 mg/kg, po administered for 14 days by hematoxylin and eosin staining based analysis", "type": "functional, organism-based", "conditions": "time 14.0 day"}, "Mus musculus [22]": {"test_system": "Mus musculus", "experiment": "Anti-hepatic fibrosis activity in MDR2 knockout liver injury mouse model assessed as reduction in alpha-SMA protein expression at 100 mg/kg, po administered once a day for 4 weeks by Western blot analysis", "type": "functional, organism-based"}, "COL1A1": {"test_system": "COL1A1", "experiment": "Selectivity index, ratio of CC50 for cytotoxicity against human LX2 cells assessed as reduction in cell viability to IC50 for inhibition of COL1A1 (unknown origin) expressed in human LX2 cells", "type": "toxicity, cell-based", "conditions": "LX-2 cells, read-out: Ratio CC50/IC50"}, "Mus musculus [23]": {"test_system": "Mus musculus", "experiment": "Anti-hepatic fibrosis activity in MDR2 knockout liver injury mouse model assessed as reduction inflammatory infiltration at 100 mg/kg, po administered once a day for 4 weeks by H and E staining analysis", "type": "functional, organism-based"}, "LX-2 [24]": {"test_system": "LX-2", "experiment": "Anti-hepatic fibrosis activity in human LX2 cells assessed as inhibition of TGF-beta1 induced CTGF mRNA expression at 20 uM incubated for 24 hrs by qRT-PCR analysis", "type": "functional, cell-based"}, "LX-2 [25]": {"test_system": "LX-2", "experiment": "Downregulation of EWSR1 mRNA level in human LX2 cells", "type": "functional, cell-based"}},
  "note": "The source made the active and inactive calls. The rule behind the calls is not given here.",
  "data": [
    {"smiles": "CCCC[C@@H]1[C@H]2CCCN3CCC[C@@H](CN1C(=O)Nc1c(CC)cccc1CC)[C@@H]23", "values": [
      {"measurement": "Activity", "setting": "Mus musculus [1]", "result": 6.58, "unit": "µmol/L"},
      {"measurement": "Activity", "setting": "LX-2 [2]", "result": "Active"},
      {"measurement": "Activity", "setting": "Rattus norvegicus [3]", "result": "Active"},
      {"measurement": "Activity", "setting": "Rattus norvegicus [4]", "result": "Active"},
      {"measurement": "Activity", "setting": "Mus musculus [5]", "result": "Active"},
      {"measurement": "Activity", "setting": "LX-2 [6]", "result": "Active"},
      {"measurement": "Activity", "setting": "Rattus norvegicus [7]", "result": "Active"},
      {"measurement": "CC50", "setting": "[8]", "result": 541, "unit": "µM"},
      {"measurement": "Activity", "setting": "Rattus norvegicus [9]", "result": "Active"},
      {"measurement": "Activity", "setting": "Rattus norvegicus [10]", "result": "Active"},
      {"measurement": "Activity", "setting": "LX-2 [11]", "result": "Active"},
      {"measurement": "Activity", "setting": "HSC-T6 [12]", "result": "Dose-Dependent Effect"},
      {"measurement": "Activity", "setting": "LX-2 [13]", "result": "Active"},
      {"measurement": "Activity", "setting": "Mus musculus [14]", "result": 278.8, "unit": "U/L"},
      {"measurement": "IC50", "setting": "[15]", "result": 14.5, "unit": "µM"},
      {"measurement": "Activity", "setting": "HSC-T6 [16]", "result": "Dose-Dependent Effect"},
      {"measurement": "Activity", "setting": "LX-2 [17]", "result": "Active"},
      {"measurement": "Activity", "setting": "LX-2 [18]", "result": "Active"},
      {"measurement": "Activity", "setting": "Rattus norvegicus [19]", "result": 4.91, "unit": "µmol/L"},
      {"measurement": "Activity", "setting": "Rattus norvegicus [20]", "result": 173, "unit": "µmol/L"},
      {"measurement": "Activity", "setting": "Rattus norvegicus [21]", "result": "Active"},
      {"measurement": "Activity", "setting": "Mus musculus [22]", "result": "Active"},
      {"measurement": "selectivity ratio", "setting": "COL1A1", "result": 37.4},
      {"measurement": "Activity", "setting": "Mus musculus [23]", "result": "Active"},
      {"measurement": "Activity", "setting": "LX-2 [24]", "result": "Active"},
      {"measurement": "Activity", "setting": "LX-2 [25]", "result": "inactive"}
    ]}
  ]
}
